Entries after “also recorded” stand apart in the source; their conditions may differ.
Columns and labels:
α-glucosidase [1] = assay: α-glucosidase enzyme kinetic study (Lineweaver–Burk and secondary plots); assay type: biochemical; conditions: for mode of enzyme inhibition: Lineweaver–Burk plot
Description: The enzyme kinetics parameters (Km and Vmax) were determined by analyzing the double reciprocal Lineweaver–Burk plot (1/V vs. 1/[S]). Each experiment was carried out by varying the concentration of pNPG (2.0, 1.0, 0.5, and 0.25 mM) in the absence and presence of different concentrations of the test sample. The reaction was monitored at 405 nm by a microplate reader every 5 min for a total time of 25 min. Each experiment was performed in triplicate. […] For compound 3, secondary plots were plots of the inverted values of Km (1/Km) as a function of inhibitor concentration. The inhibition constant (Ki) was then calculated from the intersection point.

α-glucosidase [2] = assay: α-glucosidase inhibitory assay (pNPG, absorbance at 405 nm); assay type: biochemical; conditions: for α-glucosidase inhibitory activity compared with acarbose: comparison with the drug acarbose; for IC50: pNPG substrate, 37 °C, mean ± SD, triplicate
Description: The α-glucosidase enzyme inhibition assay was carried out according to the method in our previous report. The inhibitory activity was determined by measuring the p-nitrophenol, a yellow color substance that can be monitored at 405 nm, released from p-nitrophenyl-α-D-glucopyranoside (pNPG) by the α-glucosidase enzyme. The test samples were initially dissolved in 50% DMSO, and then, 10 µL of the sample solution and 40 µL of 0.1 unit/mL α-glucosidase were incubated at 37 °C for 10 min. After that, to start the reaction, 50 µL of 2 mM pNPG was added to the mixture and incubated at 37 °C for 20 min. One hundred microliters of 1 M Na2CO3 was added to stop the reaction, and then, the absorbance was measured at 405 nm. […] Each experiment was performed in triplicate.

Row | Compound | α-glucosidase inhibitory activity compared with acarbose (α-glucosidase [2]) | IC50 (α-glucosidase [2]) [µM] | also measured
1 | C[C@H]1O[C@H](O[C@H]2[C@H](O)[C@@H](O)[C@@H](O[C@H]3[C@H](O)[C@@H](O)C(O)O[C@@H]3CO)O[C@@H]2CO)[C@H](O)[C@@H](O)[C@@H]1N[C@H]1C=C(CO)[C@@H](O)[C@H](O)[C@H]1O (some centres unmarked) [Acarbose, acarbose, reference compound] | – | – | mode of enzyme inhibition (α-glucosidase [1]): competitive inhibition; Vmax (α-glucosidase [1]; inhibitor dose 387 µM): 0.1 ∆ A405/min; Vmax (α-glucosidase [1]; inhibitor dose 744 µM): 0.1 ∆ A405/min
2 | COc1c(O)cc2ccc3c(Cc4ccc(O)cc4)c(O)cc4c3c2c1CO4 [Compound 3, gastrobellinol C] | higher activity than the drug acarbose; also recorded: higher α-glucosidase inhibitory activity than acarbose | 45.9 ± 2.8 | mode of enzyme inhibition (α-glucosidase [1]): competitive inhibition; also recorded: competitive inhibitor; Ki (α-glucosidase [1]; from secondary plot): 87.3 µM; Vmax (α-glucosidase [1]; inhibitor dose 20 µM, pNPG 0.25–2.0 mM): 0.1 ∆ A405/min; Vmax (α-glucosidase [1]; inhibitor dose 40 µM, pNPG 0.25–2.0 mM): 0.1 ∆ A405/min; maximum velocity (Vmax) (α-glucosidase [1]; unchanged at 20 µM and 40 µM compound 3): 0.1 A405/min
3 | COc1cc2c3c(ccc4cc(O)c(OC)c(c43)CO2)c1Cc1ccc(O)cc1 [Compound 2, gastrobellinol B] | higher activity than the drug acarbose; also recorded: higher α-glucosidase inhibitory activity than acarbose | 97.8 ± 3.1 | –
4 | O=Cc1ccc(O)cc1 [Compound 8, 4-hydroxybenzaldehyde] | higher α-glucosidase inhibitory activity than acarbose | – | –
5 | COc1c(O)cc2c3c1COc1cc(O)cc(c1-3)CC2 [Compound 15, imbricatin] | higher activity than the drug acarbose; also recorded: higher α-glucosidase inhibitory activity than acarbose | 301 ± 6.6 | –
6 | COc1cc(/C=C/C=O)ccc1O [Compound 7, coniferyl aldehyde] | higher activity than the drug acarbose; also recorded: higher α-glucosidase inhibitory activity than acarbose | 381 ± 9.3 | –
7 | COc1c(O)cc2c3c1COc1cc(O)c(Cc4ccc(O)cc4)c(c1-3)CC2 [Compound 13, 1-(4′-hydroxybenzyl)-imbricartin] | higher activity than the drug acarbose; also recorded: higher α-glucosidase inhibitory activity than acarbose | 53.7 ± 12.5 | –
8 | COc1c(O)cc2c3c1COc1c(Cc4ccc(O)cc4)c(O)cc(c1-3)CC2 [Compound 1, gastrobellinol A] | higher activity than the drug acarbose; also recorded: higher α-glucosidase inhibitory activity than acarbose | 88.7 ± 4.1 | –
9 | COc1cc2ccc3cc(O)c(OC)c4c(=O)oc(c1)c2c34 [Compound 9, agrostophyllone] | higher activity than the drug acarbose | 281 ± 15.9 | –
